# Data taken from patent US20240158370A1, “CK1 alpha AND DUAL CK1 alpha / GSPT1 DEGRADING COMPOUNDS” (Innovo Therapeutics, Inc., priority 2022, published 2024).
# How the values were obtained:
# [1] = molecular target: T1, CK1α (Homo sapiens, UniProt P48729+Q96SW2); assay: HiBiT degradation assay, CK1α, Procedure A; format: cell-based; settings: six hours
# T1 construct: CSNK1A1-HiBit KI HEK293(LgBit) Cells; host or cells: HEK293(LgBit) knock-in cells
# Procedure, shortened: (§1)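 10-pt dose response, 10–0.005 μM, 0.1% DMSO; cells 1×10^6/ml in DMEM/10% FBS, 6 h, 37° C; HiBiT lytic detection, luminescence; DC50 + Ymin by 4-parameter fit.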
# [2] = molecular target: GSPT1 (Homo sapiens, UniProt P15170+Q96SW2); assay: HiBiT degradation assay, GSPT1, Procedure A; format: cell-based; design: HiBit-GSPT1 KI HEK293(LgBit) Cells; host or cells: HEK293(LgBit) knock-in cells; settings: six hours
# Procedure, shortened: as §1
# Chain of GSPT1 (P15170 whole entry): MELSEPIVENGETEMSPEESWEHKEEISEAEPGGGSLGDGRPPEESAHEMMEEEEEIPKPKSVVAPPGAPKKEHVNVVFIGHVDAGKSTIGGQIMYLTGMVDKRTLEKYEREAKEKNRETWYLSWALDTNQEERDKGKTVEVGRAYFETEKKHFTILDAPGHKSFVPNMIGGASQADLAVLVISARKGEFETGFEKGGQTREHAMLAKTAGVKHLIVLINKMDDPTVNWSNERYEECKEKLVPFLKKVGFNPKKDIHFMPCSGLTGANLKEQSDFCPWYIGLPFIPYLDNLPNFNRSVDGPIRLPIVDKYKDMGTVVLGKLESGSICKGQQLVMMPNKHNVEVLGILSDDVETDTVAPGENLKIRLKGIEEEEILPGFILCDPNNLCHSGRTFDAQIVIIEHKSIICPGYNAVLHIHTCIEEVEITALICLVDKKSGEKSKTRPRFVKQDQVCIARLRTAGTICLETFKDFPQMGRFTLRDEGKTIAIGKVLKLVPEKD
# Chain of GSPT1 (Q96SW2 whole entry): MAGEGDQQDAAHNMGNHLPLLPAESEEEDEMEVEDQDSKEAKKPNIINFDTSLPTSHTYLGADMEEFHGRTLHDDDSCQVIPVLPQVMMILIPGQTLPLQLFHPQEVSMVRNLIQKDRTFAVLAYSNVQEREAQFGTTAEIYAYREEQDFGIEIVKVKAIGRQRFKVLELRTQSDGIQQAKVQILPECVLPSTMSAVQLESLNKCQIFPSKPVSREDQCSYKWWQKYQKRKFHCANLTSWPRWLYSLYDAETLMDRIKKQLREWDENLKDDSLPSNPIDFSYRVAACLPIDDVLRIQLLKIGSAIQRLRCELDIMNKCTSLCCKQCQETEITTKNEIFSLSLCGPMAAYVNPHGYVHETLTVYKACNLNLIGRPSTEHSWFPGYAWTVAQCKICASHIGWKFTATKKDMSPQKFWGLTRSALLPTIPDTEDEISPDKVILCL
# Chain of GSPT1 (Q16531 whole entry partner): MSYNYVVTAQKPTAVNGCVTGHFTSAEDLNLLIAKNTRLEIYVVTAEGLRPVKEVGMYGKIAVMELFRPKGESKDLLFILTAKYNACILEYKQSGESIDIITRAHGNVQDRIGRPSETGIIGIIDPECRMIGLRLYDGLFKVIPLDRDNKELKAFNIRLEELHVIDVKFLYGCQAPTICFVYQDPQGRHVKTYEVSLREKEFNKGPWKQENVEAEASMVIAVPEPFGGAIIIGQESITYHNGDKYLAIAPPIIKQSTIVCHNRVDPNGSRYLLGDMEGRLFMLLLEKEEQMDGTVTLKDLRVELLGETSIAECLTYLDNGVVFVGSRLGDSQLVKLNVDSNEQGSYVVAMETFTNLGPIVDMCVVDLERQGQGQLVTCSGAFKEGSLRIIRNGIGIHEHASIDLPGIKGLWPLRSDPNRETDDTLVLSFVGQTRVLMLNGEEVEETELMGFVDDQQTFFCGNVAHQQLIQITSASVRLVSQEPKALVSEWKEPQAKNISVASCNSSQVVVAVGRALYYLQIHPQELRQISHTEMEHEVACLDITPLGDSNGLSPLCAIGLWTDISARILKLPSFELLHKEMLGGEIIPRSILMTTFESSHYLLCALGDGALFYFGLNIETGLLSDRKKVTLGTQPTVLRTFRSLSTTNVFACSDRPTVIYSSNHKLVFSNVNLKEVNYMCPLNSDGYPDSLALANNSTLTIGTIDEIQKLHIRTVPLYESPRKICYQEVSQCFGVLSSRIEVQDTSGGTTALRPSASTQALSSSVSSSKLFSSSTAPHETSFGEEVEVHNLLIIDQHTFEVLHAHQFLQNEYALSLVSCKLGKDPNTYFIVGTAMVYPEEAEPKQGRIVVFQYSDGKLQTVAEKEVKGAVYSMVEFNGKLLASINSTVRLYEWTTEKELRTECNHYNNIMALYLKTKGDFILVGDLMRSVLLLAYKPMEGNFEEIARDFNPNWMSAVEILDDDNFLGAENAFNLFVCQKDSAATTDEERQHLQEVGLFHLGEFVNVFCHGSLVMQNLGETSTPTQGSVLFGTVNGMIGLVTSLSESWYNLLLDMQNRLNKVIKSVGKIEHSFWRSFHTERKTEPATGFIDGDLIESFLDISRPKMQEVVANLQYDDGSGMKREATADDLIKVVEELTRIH
# T1 sequence (P48729 whole entry): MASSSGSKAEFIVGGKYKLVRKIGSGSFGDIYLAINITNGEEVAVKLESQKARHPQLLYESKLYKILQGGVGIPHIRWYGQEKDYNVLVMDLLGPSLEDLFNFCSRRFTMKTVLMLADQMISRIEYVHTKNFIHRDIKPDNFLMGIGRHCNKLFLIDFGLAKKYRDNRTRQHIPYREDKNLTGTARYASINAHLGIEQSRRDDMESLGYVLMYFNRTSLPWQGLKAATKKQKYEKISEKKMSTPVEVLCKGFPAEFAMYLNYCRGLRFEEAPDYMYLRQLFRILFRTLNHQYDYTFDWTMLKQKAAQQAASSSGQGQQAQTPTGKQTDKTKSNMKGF
# T1 sequence (Q96SW2 whole entry): as the sequence (Q96SW2 whole entry) above
# T1 sequence (Q16531 whole entry partner): as the sequence (Q16531 whole entry partner) above
Structure (SMILES),CK1α Ymin [1],DC50 [1] [nM],DC50 [2] [nM],GSPT1 Ymin [2]
"Cn1cc(-c2ccc3c(c2)CN(C2CCC(=O)NC2=O)C3=O)nc1C1CCC2(CC1)CC2 (centres unmarked) [Example 534, 3-(5-(1-Methyl-2-(spiro[2.5]octan-6-yl)-1H-imidazol-4-yl)-1-oxoisoindolin-2-yl)piperidine-2,6-dione]",D (D = >10- 25% remaining),< 25,≥ 25,F (F = >75-100% remaining)
"Cn1c(C2CCOCC2)nc(-c2ccc3c(c2)CN(C2CCC(=O)NC2=O)C3=O)c1-c1cncnc1 (centres unmarked) [Example 535, 3-(5-(1-methyl-5-(pyrimidin-5-yl)-2-(tetrahydro-2H-pyran-4-yl)-1H-imidazol-4-yl)-1-oxoisoindolin-2-yl)piperidine-2,6-dione]",D (D = >10- 25% remaining),≥ 25,≥ 25,F (F = >75-100% remaining)
"O=C1CCC(N2Cc3cc(-c4cn(C(F)F)nc4-c4cncnc4)ccc3C2=O)C(=O)N1 (centres unmarked) [Example 536, 3-(5-(1-(difluoromethyl)-3-(pyrimidin-5-yl)-1H-pyrazol-4-yl)-1-oxoisoindolin-2-yl)piperidine-2,6-dione]",F (F = >75-100% remaining),≥ 25,≥ 25,F (F = >75-100% remaining)
"Cn1c(-c2ccc3c(c2)CN(C2CCC(=O)NC2=O)C3=O)cnc1N1CCCCC1 (centres unmarked) [Example 537, 3-(5-(1-methyl-2-(piperidin-1-yl)-1H-imidazol-5-yl)-1-oxoisoindolin-2-yl)piperidine-2,6-dione]",D (D = >10- 25% remaining),< 25,≥ 25,F (F = >75-100% remaining)
"Cn1nc(-c2ccc3c(c2)CN(C2CCC(=O)NC2=O)C3=O)cc1C1CCOCC1 (centres unmarked) [Example 538, 3-(5-(1-methyl-5-(tetrahydro-2H-pyran-4-yl)-1H-pyrazol-3-yl)-1-oxoisoindolin-2-yl)piperidine-2,6-dione]",D (D = >10- 25% remaining),< 25,≥ 25,
"Cn1cc(-c2ccc3c(c2)CN(C2CCC(=O)NC2=O)C3=O)nc1C1CCC(C)(C)CC1 (centres unmarked) [Example 539, 3-(5-(2-(4,4-dimethylcyclohexyl)-1-methyl-1H-imidazol-4-yl)-1-oxoisoindolin-2-yl)piperidine-2,6-dione]",E (E = >25-75% remaining),< 25,≥ 25,F (F = >75-100% remaining)
"Cn1c(C(F)F)nc(-c2ccc3c(c2)CN(C2CCC(=O)NC2=O)C3=O)c1-c1cncnc1 (centres unmarked) [Example 540, 3-(5-(2-(difluoromethyl)-1-methyl-5-(pyrimidin-5-yl)-1H-imidazol-4-yl)-1-oxoisoindolin-2-yl)piperidine-2,6-dione]",C (C = 0-10% remaining),< 25,≥ 25,F (F = >75-100% remaining)
"Cn1ncc(-c2ccc3c(c2)CN(C2CCC(=O)NC2=O)C3=O)c1-c1ccc(C(C)(F)F)cc1 (centres unmarked) [Example 541, 3-(5-(5-(4-(1,1-difluoroethyl)phenyl)-1-methyl-1H-pyrazol-4-yl)-1-oxoisoindolin-2-yl)piperidine-2,6-dione]",D (D = >10- 25% remaining),< 25,< 25,F (F = >75-100% remaining)
"Cn1ncc(-c2ccc3c(c2)CN(C2CCC(=O)NC2=O)C3=O)c1-c1ccc2c(c1)OC(F)(F)O2 (centres unmarked) [Example 542, 3-(5-(5-(2,2-difluorobenzo[d][1,3]dioxol-5-yl)-1-methyl-1H-pyrazol-4-yl)-1-oxoisoindolin-2-yl)piperidine-2,6-dione]",C (C = 0-10% remaining),< 25,< 25,F (F = >75-100% remaining)
"CC(C)c1nc(-c2ccc3c(c2)CN(C2CCC(=O)NC2=O)C3=O)c(-c2cncnc2)n1C (centres unmarked) [Example 543, 3-[5-(2-isopropyl-1-methyl-5-pyrimidin-5-yl-imidazol-4-yl)-1-oxo-isoindolin-2-yl]piperidine-2,6-dione]",C (C = 0-10% remaining),< 25,≥ 25,F (F = >75-100% remaining)
"Cc1nc(-c2ccc3c(c2)CN(C2CCC(=O)NC2=O)C3=O)c(-c2cncnc2)n1C (centres unmarked) [Example 544, 3-(5-(1,2-dimethyl-5-(pyrimidin-5-yl)-1H-imidazol-4-yl)-1-oxoisoindolin-2-yl)piperidine-2,6-dione]",E (E = >25-75% remaining),≥ 25,≥ 25,F (F = >75-100% remaining)
"Cn1cc(-c2ccc3c(c2)CN(C2CCC(=O)NC2=O)C3=O)nc1C1CCC(F)(F)CC1 (centres unmarked) [Example 545, 3-(5-(2-(4,4-difluorocyclohexyl)-1-methyl-1H-imidazol-4-yl)-1-oxoisoindolin-2-yl)piperidine-2,6-dione]",D (D = >10- 25% remaining),< 25,≥ 25,F (F = >75-100% remaining)
"Cc1ncc(-c2c(-c3ccc4c(c3)CN(C3CCC(=O)NC3=O)C4=O)nc(C3CC3)n2C)cn1 (centres unmarked) [Example 547, 3-(5-(2-cyclopropyl-1-methyl-5-(2-methylpyrimidin-5-yl)-1H-imidazol-4-yl)-1-oxoisoindolin-2-yl)piperidine-2,6-dione]",D (D = >10- 25% remaining),< 25,≥ 25,F (F = >75-100% remaining)
"Cn1c(C2CC2)nc(-c2ccc3c(c2)CN(C2CCC(=O)NC2=O)C3=O)c1-c1cnc(C2CC2)nc1 (centres unmarked) [Example 548, 3-(5-(2-cyclopropyl-5-(2-cyclopropylpyrimidin-5-yl)-1-methyl-1H-imidazol-4-yl)-1-oxoisoindolin-2-yl)piperidine-2,6-dione]",D (D = >10- 25% remaining),< 25,≥ 25,F (F = >75-100% remaining)
"CC(C)n1cc(-c2ccc3c(c2)CN(C2CCC(=O)NC2=O)C3=O)nc1-c1ccccc1 (centres unmarked) [Example 549, 3-(5-(1-isopropyl-2-phenyl-1H-imidazol-4-yl)-1-oxoisoindolin-2-yl)piperidine-2,6-dione]",C (C = 0-10% remaining),< 25,≥ 25,F (F = >75-100% remaining)
"O=C1CCC(N2Cc3cc(-n4ccc(-c5ccccc5)n4)ccc3C2=O)C(=O)N1 (centres unmarked) [Example 551, 3-(1-oxo-5-(3-phenyl-1H-pyrazol-1-yl)isoindolin-2-yl)piperidine-2,6-dione]",E (E = >25-75% remaining),< 25,≥ 25,F (F = >75-100% remaining)
"O=C1CCC(N2Cc3cc(-n4cnc(-c5ccccc5)c4)ccc3C2=O)C(=O)N1 (centres unmarked) [Example 552, 3-(1-oxo-5-(4-phenyl-1H-imidazol-1-yl)isoindolin-2-yl)piperidine-2,6-dione]",E (E = >25-75% remaining),≥ 25,≥ 25,F (F = >75-100% remaining)
"Cn1nc(-c2ccc3c(c2)CN(C2CCC(=O)NC2=O)C3=O)nc1N1CCCCC1 (centres unmarked) [Example 554, 3-(5-(1-methyl-5-(piperidin-1-yl)-1H-1,2,4-triazol-3-yl)-1-oxoisoindolin-2-yl) piperidine-2,6-dione]",D (D = >10- 25% remaining),< 25,≥ 25,F (F = >75-100% remaining)
Cn1cc(-c2ccc3c(c2)CN(C2CCC(=O)NC2=O)C3=O)nc1-c1cc(F)cc(F)c1 (centres unmarked) [Example 555],C (C = 0-10% remaining),< 25,≥ 25,F (F = >75-100% remaining)
Cn1cc(-c2ccc3c(c2)CN(C2CCC(=O)NC2=O)C3=O)nc1-c1ccc(F)cc1 (centres unmarked) [Example 556],C (C = 0-10% remaining),< 25,≥ 25,F (F = >75-100% remaining)
COc1ccc(-c2nc(-c3ccc4c(c3)CN(C3CCC(=O)NC3=O)C4=O)cn2C)cc1 (centres unmarked) [Example 557],C (C = 0-10% remaining),< 25,≥ 25,F (F = >75-100% remaining)
Cc1cc(-c2nc(-c3ccc4c(c3)CN(C3CCC(=O)NC3=O)C4=O)cn2C)ccc1N (centres unmarked) [Example 558],C (C = 0-10% remaining),< 25,≥ 25,F (F = >75-100% remaining)
Cn1cc(-c2ccc3c(c2)CN(C2CCC(=O)NC2=O)C3=O)nc1-c1ccoc1 (centres unmarked) [Example 559],C (C = 0-10% remaining),< 25,< 25,F (F = >75-100% remaining)
Cc1cc(F)ccc1-c1nc(-c2ccc3c(c2)CN(C2CCC(=O)NC2=O)C3=O)cn1C (centres unmarked) [Example 560],C (C = 0-10% remaining),< 25,< 25,F (F = >75-100% remaining)
Cc1ccc(F)c(-c2nc(-c3ccc4c(c3)CN(C3CCC(=O)NC3=O)C4=O)cn2C)c1 (centres unmarked) [Example 561],C (C = 0-10% remaining),< 25,< 25,F (F = >75-100% remaining)
Cc1cc(Cl)ccc1-c1nc(-c2ccc3c(c2)CN(C2CCC(=O)NC2=O)C3=O)cn1C (centres unmarked) [Example 562],C (C = 0-10% remaining),< 25,< 25,F (F = >75-100% remaining)
Cc1cc(-c2nc(-c3ccc4c(c3)CN(C3CCC(=O)NC3=O)C4=O)cn2C)ccc1F (centres unmarked) [Example 563],C (C = 0-10% remaining),< 25,≥ 25,F (F = >75-100% remaining)
